Reference: patent US10183020B2 (AstraZeneca AB, priority 2014, dated 2019)

How the values were obtained:
[1] = Solubility of AZD9291 in simulated gastric fluid, human intestinal fluid and at intestinal pH
From the text: (§1) In such cases, where the solubility of a drug varies with pH, and particularly when the solubility is highest at acidic pH, there is a problem that the drug may precipitate from solution as it passes through the gastrointestinal tract. Drugs need to be in solution in order to be absorbed, so such precipitation can lead to variability in the extent and/or rate of absorption of the drug. […] In principle, the dose administered to a patient could be increased to account for potentially poor absorption, but this approach introduces a risk that too much of the drug may enter the patient's system in some cases—which may be a safety risk and/or increase the risk/severity of side-effects. […] Accordingly, there remained a problem to provide an improved way of dosing the Agent to patients that should reduce/avoid the risk of and/or severity of the above-mentioned problems of inter-patient variability of absorption and/or inter-dose variability of absorption.

[2] = Stability of solution (precipitation); type: physicochemical; conditions: solution once formed
[3] = Permeability; type: in vitro ADME
From the text: as §1

[4] = system: advanced EGFRm T790M+ lung adenocarcinoma; assay: Phase 1 clinical trial; type: in vivo, human; conditions: a number of patients; Agent in the form of the mesylate salt
From the text: Further details of this ‘blend in capsule’ formulation are described hereinafter as ‘Comparative Example 1’.

[5] = system: EGFRm+ and T790M mutant tumour xenograft and transgenic models; conditions: doses as low as 5 mg/kg/day; cited from earlier work
[6] = system: EGFRm+ sensitising and the T790M resistance mutant forms of EGFR; conditions: cited from earlier work
[7] = system: EGFRm+ and T790M mutant cell lines; conditions: in vitro; cited from earlier work
[8] = system: wild-type EGFR lines; conditions: in vitro, compared with mutant cell lines; cited from earlier work

## AZD9291 mesylate
[1]; intestinal pH
  solubility at intestinal pH compared with AZD9291 in free base form: significantly higher
[2]
  period over which solution is stable without precipitation: at least 24 hours

## C=CC(=O)Nc1cc(Nc2nccc(-c3cn(C)c4ccccc34)n2)c(OC)cc1N(C)CCN(C)C [AZD9291, N-(2-{2-dimethylaminoethyl-methylamino}-4-methoxy-5-{[4-(1-methylindol-3-yl)pyrimidin-2-yl]amino}phenyl)prop-2-enamide]
[1]
  pH dependent solubility: significant pH dependent solubility
[3]
  permeability: moderate permeability
[4]
  clinical response: partial responses
[5]
  tumor regression: profound and sustained tumor regression
[6]
  inhibition of EGFRm+ sensitising and T790M resistance mutant forms of EGFR: potent inhibitor
[7]
  inhibition of EGFR signaling pathways and cellular growth: potently inhibits
[8]
  activity against wild-type EGFR lines: much less activity
